Measurements published in patent publication US7645752B2, “Sulfonyl substituted 1H-indoles as ligands for the 5-hydroxytryptamine receptors” (Wyeth LLC, priority 2006, dated 2010).
Structures can show the parent of a compound that is named as a salt. Where two headings read alike, the source gives them in different places.

How the values were obtained:
[1] = biological target: T1, human cloned 5-HT6 receptors (Homo sapiens, UniProt P50406); experiment: 5-HT6 binding affinity, [3H]-LSD displacement on membranes of Hela cells; conditions: for inhibition at 1 µM: 5-HT6 binding, at 1 micromole, read-out: % inhibition at 1 micromole
T1 construct: expressed in transfected cells; host or cells: HeLa cells
Experimental: The affinity of test compounds for the 5-HT6 receptor is evaluated in the following manner. Cultured Hela cells expressing human cloned 5-HT6 receptors are harvested and centrifuged at low speed (1,000×g) for 10.0 min to remove the culture media. The harvested cells are suspended in half volume of fresh physiological phosphate buffered saline solution and recentrifuged at the same speed. This operation is repeated. The collected cells are then homogenized in ten volumes of 50 mM Tris.HCl (pH 7.4) and 0.5 mM EDTA. The homogenate is centrifuged at 40,000×g for 30.0 min and the precipitate is collected. The obtained pellet is resuspended in 10 volumes of Tris.HCl buffer and recentrifuged at the same speed. The final pellet is suspended in a small volume of Tris.HCl buffer and the tissue protein content is determined in aliquots of 10-25 microliter volumes. […] The volume of the suspended cell membranes is adjusted to give a tissue protein concentration of 1.0 mg/mL of suspension. The prepared membrane suspension (10 times concentrated) is aliquoted in 1.0 mL volumes and stored at −70° C. until used in subsequent binding experiments.
Binding experiments are performed in a 96 well microtiter plate format in a total volume of 200 microliters. […] The test compounds are added in 20.0 microliter volume.
The bound complex caught on the filter disk is allowed to air dry and the radioactivity is measured in a Packard TopCount® equipped with six photomultiplier detectors, after the addition of 40.0 microliter Microscint®-20 scintillant to each shallow well.
Binding in the presence of varying concentrations of test compound is expressed as a percentage of specific binding in the absence of test compound. The results are plotted as log % bound versus log concentration of the test compound.

[2] = Table 1, [3H]-LSD 3.0 nM, Hela cell membranes, read-out: Ki (nM) @ 5-HT6 receptor

T1 sequence (P50406 whole entry): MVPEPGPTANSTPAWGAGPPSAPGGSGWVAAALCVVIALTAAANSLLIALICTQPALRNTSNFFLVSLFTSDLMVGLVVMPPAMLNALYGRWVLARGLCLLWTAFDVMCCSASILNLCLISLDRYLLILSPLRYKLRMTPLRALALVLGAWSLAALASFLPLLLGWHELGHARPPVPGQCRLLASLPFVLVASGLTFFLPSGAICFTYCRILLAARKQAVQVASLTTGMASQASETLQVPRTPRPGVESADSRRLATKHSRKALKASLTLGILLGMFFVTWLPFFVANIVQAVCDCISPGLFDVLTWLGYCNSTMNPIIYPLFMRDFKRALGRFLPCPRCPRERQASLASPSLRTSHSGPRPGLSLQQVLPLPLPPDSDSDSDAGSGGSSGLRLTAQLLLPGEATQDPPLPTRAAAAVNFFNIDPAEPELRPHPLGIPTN

Compound	Ki [1, 2] [nM]	inhibition at 1 µM ([1]; Table 1) [%]	further results
CN(C)CCc1ccc2[nH]cc(S(=O)(=O)c3ccccc3)c2c1 (as salt: hydrochloride) [Example 1, N,N-dimethyl-N-{2-[3-(phenylsulfonyl)-1H-indol-5-yl]ethyl}amine]	–	–	melting point: 251 °C
CCCNCCc1ccc2[nH]cc(S(=O)(=O)c3ccccc3)c2c1 (as salt: hydrochloride) [Example 2, N-{2-[3-(phenylsulfonyl)-1H-indol-5-yl]ethyl}-N-propylamine]	–	–	melting point: 189 to 192 °C
CCC(C)CNCCc1cccc2[nH]cc(S(=O)(=O)c3cccc(F)c3)c12 (stereo not drawn) [Example 79, {2-[3-(3-Fluorophenylsulfonyl)-1H-indol-4-yl]-ethyl}-(2-methyl-butyl)-amine]	120	–	–
CC(NCCc1cccc2[nH]cc(S(=O)(=O)c3cccc(F)c3)c12)C(C)(C)C (stereo not drawn) [Example 80, N-{2-[3-(3-fluorophenylsulfonyl)-1H-indol-4-yl]ethyl}-N-(1,2,2-trimethylpropyl)amine]	13	–	–
CC(C)(C)CNCCc1cccc2[nH]cc(S(=O)(=O)c3cccc(F)c3)c12 [Example 81, N-(2,2-dimethylpropyl)-N-{2-[3-(3-fluorophenylsulfonyl)-1H-indol-4-yl]ethyl}amine]	–	74	–
O=S(=O)(c1cccc(F)c1)c1c[nH]c2cccc(CCNCC3CCCO3)c12 (stereo not drawn) [Example 82, N-{2-[3-(3-fluorophenylsulfonyl)-1H-indol-4-yl]ethyl}-N-((tetrahydrofur-2-yl)methyl)amine]	–	72	–
CN(C)CCCNCCc1cccc2[nH]cc(S(=O)(=O)c3cccc(F)c3)c12 [Example 83, N′-{2-[3-(3-Fluorophenylsulfonyl)-1H-indol-4-yl]-ethyl}-N,N-dimethyl-propane-1,3-diamine]	–	42	–
CN(CCO)CCc1cccc2[nH]cc(S(=O)(=O)c3cccc(F)c3)c12 [Example 84, 2-({2-[3-(3-Fluorophenylsulfonyl)-1H-indol-4-yl]-ethyl}-methyl-amino)-ethanol]	–	73	–
NCCc1cccc2[nH]cc(S(=O)(=O)c3cccc(F)c3)c12 [Example 85, {2-[3-(3-fluorophenylsulfonyl)-1H-indol-4-yl]ethyl}amine]	348	–	–
CN(C)CCc1ccc2c(S(=O)(=O)c3ccccc3)c[nH]c2c1 [Example 86, N,N-dimethyl-N-{2-[3-(phenylsulfonyl)-1H-indol-6-yl]ethyl}amine]	41.3	–	–
CNCCc1ccc2c(S(=O)(=O)c3ccccc3)c[nH]c2c1 [Example 87, N-methyl-N-{2-[3-(phenylsulfonyl)-1H-indol-6-yl]ethyl}amine]	10.5	–	–
CCNCCc1ccc2c(S(=O)(=O)c3ccccc3)c[nH]c2c1 [Example 88, N-ethyl-N-{2-[3-(phenylsulfonyl)-1H-indol-6-yl]ethyl}amine]	–	–	Ki [1]: 96.3 nM
CCCNCCc1ccc2c(S(=O)(=O)c3ccccc3)c[nH]c2c1 [Example 89, N-{2-[3-(phenylsulfonyl)-1H-indol-6-yl]ethyl}-N-propylamine]	150	–	–
CC(C)NCCc1ccc2c(S(=O)(=O)c3ccccc3)c[nH]c2c1 [Example 90, N-{2-[3-(phenylsulfonyl)-1H-indol-6-yl]ethyl}propan-2-amine]	–	78	–
O=S(=O)(c1ccccc1)c1c[nH]c2cc(CCNC3CC3)ccc12 [Example 91, N-{2-[3-(phenylsulfonyl)-1H-indol-6-yl]ethyl}cyclopropanamine]	41	–	–
O=S(=O)(c1ccccc1)c1c[nH]c2cc(CCNC3CCC3)ccc12 [Example 92, N-{2-[3-(phenylsulfonyl)-1H-indol-6-yl]ethyl}cyclobutanamine]	–	75	–
O=S(=O)(c1ccccc1)c1c[nH]c2cc(CCNC3CCCC3)ccc12 [Example 93, N-{2-[3-(phenylsulfonyl)-1H-indol-6-yl]ethyl}cyclopentanamine]	–	71	–

Compound	Ki [1, 2] [nM]	inhibition at 1 µM ([1]; Table 1) [%]	further results
O=S(=O)(c1ccccc1)c1c[nH]c2cc(CCNC3CCCCC3)ccc12 [Example 94, N-{2-[3-(phenylsulfonyl)-1H-indol-6-yl]ethyl}cyclohexanamine]	–	51	–
CCN(C)CCc1ccc2c(S(=O)(=O)c3ccccc3)c[nH]c2c1 [Example 95, N-ethyl-N-methyl-N-{2-[3-(phenylsulfonyl)-1H-indol-6-yl]ethyl}amine]	118	–	–
CN(CCc1ccc2c(S(=O)(=O)c3ccccc3)c[nH]c2c1)C1CCCCC1 [Example 96, N-cyclohexyl-N-methyl-N-{2-[3-(phenylsulfonyl)-1H-indol-6-yl]ethyl}amine]	–	75	–
CCN(CC)CCc1ccc2c(S(=O)(=O)c3ccccc3)c[nH]c2c1 [Example 97, N,N-diethyl-N-{2-[3-(phenylsulfonyl)-1H-indol-6-yl]ethyl}amine]	12.3	–	–
O=S(=O)(c1ccccc1)c1c[nH]c2cc(CCN3CCCC3)ccc12 [Example 98, 3-(phenylsulfonyl)-6-(2-pyrrolidin-1-ylethyl)-1H-indole]	–	76	–
O=S(=O)(c1ccccc1)c1c[nH]c2cc(CCN3CCCCC3)ccc12 [Example 99, 3-(phenylsulfonyl)-6-(2-piperidin-1-ylethyl)-1H-indole]	–	79	–
O=S(=O)(c1ccccc1)c1c[nH]c2cccc(CCC3CNCCO3)c12 (stereo not drawn) [Example 100, 4-(2-morpholin-6-ylethyl)-3-(phenylsulfonyl)-1H-indole]	–	54	–
O=S(=O)(c1ccccc1)c1c[nH]c2cc(CCN3CCNCC3)ccc12 [Example 101, 3-phenylsulfonyl-6-(2-piperazin-1-yl-ethyl)-1H-indole]	–	55	–
CC(C)CNCCc1ccc2c(S(=O)(=O)c3ccccc3)c[nH]c2c1 [Example 102, N-isobutyl-N-{2-[3-(phenylsulfonyl)-1H-indol-6-yl]ethyl}amine]	–	72	–
CCC(CC)NCCc1ccc2c(S(=O)(=O)c3ccccc3)c[nH]c2c1 [Example 103, (1-Ethyl-propyl)-{2-[3-(phenylsulfonyl)-1H-indol-6-yl]-ethyl}-amine]	–	63	–
CCC(C)CNCCc1ccc2c(S(=O)(=O)c3ccccc3)c[nH]c2c1 (stereo not drawn) [Example 104, {2-[3-(phenylsulfonyl)-1H-indol-6-yl]-ethyl}-(2-methyl-butyl)-amine]	–	69	–
CC(NCCc1ccc2c(S(=O)(=O)c3ccccc3)c[nH]c2c1)C(C)(C)C (stereo not drawn) [Example 105, N-{2-[3-(phenylsulfonyl)-1H-indol-6-yl]ethyl}-N-(1,2,2-trimethylpropyl)amine]	–	55	–
CC(C)(C)CNCCc1ccc2c(S(=O)(=O)c3ccccc3)c[nH]c2c1 [Example 106, N-(2,2-dimethylpropyl)-N-{2-[3-(phenylsulfonyl)-1H-indol-6-yl]ethyl}amine]	–	67	–
O=S(=O)(c1ccccc1)c1c[nH]c2cc(CCNCC3CCCO3)ccc12 (stereo not drawn) [Example 107, N-{2-[3-(phenylsulfonyl)-1H-indol-6-yl]ethyl}-N-((tetrahydrofur-2-yl)methyl)amine]	85	–	–
O=S(=O)(c1ccccc1)c1c[nH]c2cc(CCN3CCC3)ccc12 [Example 108, 6-(2-Azetidin-1-yl-ethyl)-3-phenylsulfonyl-1H-indole]	74	–	–
NCCc1ccc2c(S(=O)(=O)c3ccccc3)c[nH]c2c1 [Example 109, {2-[3-(phenylsulfonyl)-1H-indol-6-yl]ethyl}amine]	10	–	–
